Results on three compounds are retold here after patent publication US20250154120A1, “COUMARIN COMPOUNDS AND USES THEREOF” (priority 2022, published 2025).

One data set deals with HCT116 cells. The data set can be described thus: HCT116 cell proliferation inhibition in vitro (3D CellTiter-Glo, 5 days). The class given is cell-based. As to conditions: Homo sapiens, HCT-116, 120 h, read-out: HCT116/IC50. The protocol:
McCoy's 5A medium, penicillin/streptomycin antibiotics purchased from Vicente, fetal bovine serum purchased from Biosera. 3D CellTiter-Glo (cell viability chemiluminescence detection reagent) reagent purchased from Promega. HCT116 cell line purchased from Nanjing Kebai Biotechnology Co., Ltd. Envision multi-label analyzer (PerkinElmer).
HCT116 cells were seeded in ultra-low attachment 96-well U-shaped plates, with 80 μL of cell suspension per well, containing 1000 HCT116 cells. The cell plate was cultured in a carbon dioxide incubator overnight.
The compound to be tested was serially diluted 5-fold to the 9th concentration using a pipette, that is, from 2 mM to 5.12 nM, in duplicates. 78 μL of culture medium was added to a middle plate, and then 2 μL of the serially diluted compound per well was transferred to the middle plate according to the corresponding position. After mixing well, 20 μL of the mixture was transferred to each well of the cell plate. The concentration range of the compound transferred to the cell plate was 10 μM to 0.0256 nM. The cell plate was placed in a carbon dioxide incubator and cultured for 5 days. Another cell plate was prepared, and its signal value was read on the day of drug addition as the […] for data analysis.
100 μL of cell viability chemiluminescent detection reagent was added to the cell plate and the mixture was incubated at room temperature for 10 minutes to stabilize the luminescent signal. The plate was read using a multi-label analyzer.
The raw data was converted into inhibition rate using the equation (Sample−Min)/(Max−Min)*100%, and the IC50 value may be obtained by four-parameter curve fitting (obtained in the “log(inhibitor) vs. response—Variable slope” mode in GraphPad Prism). The assay results of the inhibitory activity of the compounds of the present disclosure on HCT116 cell proliferation are shown in Table 1.
On the technique in general: ATP-based viability assays read luminescence as a measure of living cells.

A short description of data set [1]: Pharmacokinetic study in CD-1 male mice after oral and intravenous administration. Particulars: mouse, plasma; for AUC(0-t): read-out: Area under the plasma concentration-time curve AUC0-last. The class given is in vivo. The protocol:
Pharmacokinetic study of the test compound in CD-1 male mice after oral and intravenous injection
The test compound was mixed with 10% dimethyl sulfoxide/30% PEG-400/60% aqueous solution, vortexed and sonicated to prepare a 0.20 mg/mL clear solution. The clear solution was filtered through a microporous filter for later use. Male CD-1 mice aged 7 to 10 weeks were selected and intravenously injected with a candidate compound solution and a reference compound VS-6766 solution. The reference compound and the test compound were respectively mixed with 20% sulfobutyl-β-cyclodextrin/80% aqueous solution, vortexed and sonicated to prepare a 0.20 mg/mL nearly transparent solution containing fine particles, and the candidate compound solution was orally administered. Whole blood was collected for a certain period of time, and the plasma was prepared. The drug concentration was analyzed by LC-MS/MS method, and the pharmacokinetic parameters were calculated using Phoenix WinNonlin software (Pharsight, USA).

The next data set deals with NCI-H358. The data set can be described thus: Subcutaneous xenograft tumor model of human non-small cell lung cancer NCI-H358 in female BALB/c Nude mice. The data set is classed as in vivo, mouse. Here is the method:
In vivo pharmacodynamic study of the test drug on the subcutaneous xenograft tumor model of human non-small cell lung cancer NCI-H358 in female BALB/c Nude mice
1. Cell culture: Human lung cancer cells NCI-H358 (ECACC-95111733) were revived and cultured in vitro in monolayers in RPMI 1640 medium with 10% fetal bovine serum and 1% double antibody. The cells were cultured in a 37° C. 5% CO2 cell incubator, and passaged twice a week. When the saturation of NCI-H358 cells reached 80%-90%, the cells were harvested, counted, and inoculated.
2. Animals: BALB/c Nude mice, female, 6-8 weeks old, weighing 18-22 g
3. Tumor inoculation: 5×10^6 NCI-H358 cells were inoculated on the right side of the neck of each mouse, with an inoculation volume of 0.1 mL. The cell suspension was a mixture of PBS and Matrigel (3:1). When the average tumor volume reached 150-200 mm^3, the mice were randomly divided into groups for drug administration. The drug administration scheme and the number of assay animals in each group are shown in Table 3 below: Assay animal grouping and administration regimen
The assay index is to examine whether the tumor growth is inhibited, delayed or cured. The tumor diameter was measured with a vernier caliper twice a week. The calculation formula of tumor volume is: V=0.5 a×b^2, where a and b represent the long diameter and short diameter of the tumor respectively.
The anti-tumor efficacy of the compound was evaluated by TGI (%) or relative tumor proliferation rate T/C (%). TGI (%) reflects the tumor growth inhibition rate. Calculation of TGI (%): TGI (%)=[1−(average tumor volume of a certain treatment group at a certain measurement−average tumor volume of the treatment group at grouping)/(average tumor volume of the vehicle control group at the same measurement−average tumor volume of the vehicle control group at grouping)]×100%. Relative tumor proliferation rate T/C (%): The calculation formula is as follows: T/C %=TRTV/CRTV×100% (TRTV: RTV of the treatment group; CRTV: RTV of the negative control group). The relative tumor volume (RTV) was calculated based on the results of tumor measurement. The calculation formula is RTV=VtV0, where V0 is the average tumor volume measured at grouping (i.e. PG-D0), Vt is the average tumor volume at a certain measurement, and TRTV and CRTV are taken from the same day.
TGI (%) reflects the tumor growth inhibition rate. TGI (%)=[(1−(average tumor volume at the end of a treatment group's administration−average tumor volume at the beginning of the treatment group's administration))/(average tumor volume at the end of the vehicle control group's treatment−average tumor volume at the beginning of the vehicle control group's treatment)]×100%.
In general terms: A xenograft is tissue or cells of one species grown in another, often human tumour cells in immunodeficient mice.

Where [2] appears, read: HCT116 cells, 5 days culture, cell viability chemiluminescence.
Setting [3] is: 0.3 mg/kg p.o. QD, day 28 (discontinued D10-D17 and D23-D25).
The mark [4] stands for this setting: 1.5 mg/kg p.o. QD, day 28 (discontinued D3-D13, changed to 0.05 after D14).

The structures appear in SMILES notation. Like-named read-outs stand apart in the source and are kept apart here.

Take `CNS(=O)(=O)Nc1cccc(Cc2c(C)c3c(F)cc(OC(=O)N(C)C)cc3oc2=O)c1F` [Compound 2]: the IC50 with HCT116 cells was found to be 7.2 nM.

For `CNS(=O)(=O)Nc1nccc(Cc2c(C)c3c(F)cc(Oc4ncccn4)cc3oc2=O)c1F` [Compound 3], in data set [1] (intravenous injection, 1.04 mg/kg, read-out: Apparent volume of distribution Vdss), the Vd was found to be 0.35 L/kg. Moreover, the AUC(0-t) in data set [1] (intravenous injection, 1.04 mg/kg) was 46.8 µM·h; in data set [1] (oral administration, 2.16 mg/kg), 85.8 µM·h. Moreover, in data set [1] (intravenous injection, 1.04 mg/kg, read-out: Clearance CL), the clearance stood at 0.69 mL/min/kg. Besides, the half-life in data set [1] (intravenous injection, 1.04 mg/kg, read-out: Half-life T1/2 (converted)) is 5.73 h. The Cmax in data set [1] (oral administration, 2.16 mg/kg, read-out: Peak concentration Cmax) stood at 10.9 µM. The Tmax in data set [1] (oral administration, 2.16 mg/kg, read-out: Time to peak Tmax) was determined as 0.63 h. The bioavailability in data set [1] (oral administration, 2.16 mg/kg, read-out: Bioavailability F) came to 89.8%. For the same compound, the IC50 with HCT116 cells (setting [2]) turned out to be 28.7 nM. Besides, the Mean tumor volume in the data set with NCI-H358 (setting [3]) was 71 mm^3; in the data set with NCI-H358 (setting [4]), 67 mm^3. Further, the T/C in the data set with NCI-H358 (setting [3]) was 7.90%; in the data set on NCI-H358 (setting [4]) it was 7.45%. Further, the TGI in the data set with NCI-H358 (setting [3]) stood at 111.4%; in the data set on NCI-H358 (setting [4]), 111.9%.

In the case of `CNS(=O)(=O)Nc1cccc(Cc2c(C)c3c(F)cc(Oc4ncccn4)cc3oc2=O)c1F` [Compound 1], the IC50 in the data set on HCT116 cells (setting [2]) was 17 nM.

For orientation: Tmax means the time at which the peak concentration occurs. Usually bioavailability stands for the share of a dose that reaches the circulation, judged against a reference dose that is usually intravenous. In general, T/C refers to the result in the treated group divided by that in the control group, in per cent.
